Data taken from the supplement of paper PMC4862054.
Values joined by “and” are separate entries in the source; they are usually repeats but may differ in a detail not shown here. Identical values can stand only once.

Experiments:
Conditions in all cases: incubation time: 72 h
HCC1599 [1] = assay: drug sensitivity score (DSS), CellTiter-Blue viability (DSS (AUC-based score)); higher = stronger viability inhibition; extreme values may be limits of the assay
Summary of the method: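 Each 384-well plate was normalised to two references, 0.1 % DMSO and a positive kill control. Breast cancer cell lines (20 µl suspension) had been seeded onto compound at 5 or 9 concentrations and incubated 72 h, after which viability was read by CellTiter-Blue fluorescence at 560/590 nm. The drug sensitivity score reflects the area under the fitted dose-response curve.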

BT-474 = assay: normalised viability (% of control), CellTiter-Blue; higher = more viable cells (about 100 = DMSO control)
Protocol: (§1)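 DSRT, CellTiter-Blue viability, 72 h incubation. Signal is normalised to DMSO and benzethonium chloride controls. Value is the normalised response at dose 3.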

HDQ-P1 [2] = assay: as above
Protocol: as §1

MDA-MB-231 = assay: as above
Protocol: as §1

MDA-MB-468 [3] = assay: as above
Protocol: as §1

HCC1937 = assay: as above
Protocol: as §1

SK-BR-3 = assay: as above
Protocol: as §1

DU-4475 [4] = assay: as above
Protocol: as §1

MFM-223 = assay: as above
Protocol: as §1

BT-549 = assay: as above
Protocol: as §1

MDA-MB-436 = assay: as above
Protocol: as §1

CAL-148 [5] = assay: as above
Protocol: as §1

Hs578T = assay: as above
Protocol: as §1

MDA-MB-453 [6] = assay: as above
Protocol: as §1

HCC1143 = assay: as above
Protocol: as §1

HCC1599 [7] = assay: as above
Protocol: as §1

CAL-85-1 [8] = assay: as above
Protocol: as §1

CAL-51 [9] = assay: as above
Protocol: as §1

CAL-120 = assay: as above
Protocol: as §1

HDQ-P1 [10] = assay: as above; remark: listed apart in the source
Protocol: (§2)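 DSRT, CellTiter-Blue viability, 72 h incubation. Signal is normalised to DMSO and benzethonium chloride controls. Value is the normalised response at dose 7.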

DU-4475 [11] = assay: as above; remark: listed apart in the source
Protocol: as §2

CAL-148 [12] = assay: as above; remark: listed apart in the source
Protocol: as §2

MDA-MB-453 [13] = assay: as above; remark: listed apart in the source
Protocol: as §2

CAL-85-1 [14] = assay: as above; remark: listed apart in the source
Protocol: as §2

CAL-51 [15] = assay: as above; remark: listed apart in the source
Protocol: as §2

MDA-MB-468 [16] = assay: drug sensitivity score (DSS), CellTox Green (DSS (AUC-based score)); higher = stronger drug effect (viability inhibition or cytotoxicity); extreme values may be limits of the assay
Summary of the method: (§3)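 The area under the fitted dose-response curve was used to calculate the drug sensitivity score. Cells from breast cancer lines were incubated for 72 h in 384-well plates with compound at 5 concentrations spaced 10-fold over a 10,000-fold range specific to each compound. Plates were read for CellTox Green and then CellTiter-Glo, and normalised to 0.1 % DMSO and a positive kill control.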

CAL-85-1 [17] = assay: as above
Summary of the method: as §3

Compound: C/C(=C\c1csc(C)n1)[C@@H]1C[C@@H]2O[C@]2(C)CCC[C@H](C)[C@H](O)[C@@H](C)C(=O)C(C)(C)[C@@H](O)CC(=O)O1 [Patupilone]
- drug sensitivity score (HCC1599 [1]): 1.08
- normalised viability (BT-474; 10 nM): 66.4%
- normalised viability (HDQ-P1 [2]; 1 nM): 125%
- normalised viability (MDA-MB-231; 10 nM): 22.7%
- normalised viability (MDA-MB-468 [3]; 10 nM): 54.4%
- normalised viability (HCC1937; 10 nM): 25.5%
- normalised viability (SK-BR-3; 10 nM): 28.4%
- normalised viability (DU-4475 [4]; 1 nM): 95.4%
- normalised viability (MFM-223; 10 nM): 81.3%
- normalised viability (BT-549; 10 nM): 29.4%
- normalised viability (MDA-MB-436; 10 nM): 66.2%
- normalised viability (CAL-148 [5]; 1 nM): 93.1%
- normalised viability (Hs578T; 10 nM): 36.7%
- normalised viability (MDA-MB-453 [6]; 1 nM): 88.7%
- normalised viability (HCC1143; 10 nM): 66%
- normalised viability (HCC1599 [7]; 10 nM): 111%
- normalised viability (CAL-85-1 [8]; 1 nM): 73.7%
- normalised viability (CAL-51 [9]; 1 nM): 104%
- normalised viability (CAL-120; 10 nM): 51.6%
- normalised viability (HDQ-P1 [10]; 100 nM): 41.5%
- normalised viability (DU-4475 [11]; 100 nM): 7.8%
- normalised viability (CAL-148 [12]; 100 nM): 17.9%
- normalised viability (MDA-MB-453 [13]; 100 nM): 20.4%
- normalised viability (CAL-85-1 [14]; 100 nM): 28.6%
- normalised viability (CAL-51 [15]; 100 nM): 12.2%
- drug sensitivity score (MDA-MB-468 [16]): 25.1
- drug sensitivity score (CAL-85-1 [17]): 14.4

Compound: CC[C@]1(O)C[C@H]2CN(CCc3c([nH]c4ccccc34)[C@@](C(=O)OC)(c3cc4c(cc3OC)N(C=O)[C@H]3[C@@](O)(C(=O)OC)[C@H](OC(C)=O)[C@]5(CC)C=CCN6CC[C@]43[C@@H]65)C2)C1 [Vincristine]
- drug sensitivity score (HCC1599 [1]): 6.95 and 15.8
- normalised viability (BT-474; 10 nM): 46.2%
- normalised viability (BT-474; 100 nM): 57.2%
- normalised viability (HDQ-P1 [2]; 1 nM): 109%
- normalised viability (HDQ-P1 [2]; 10 nM): 90.7%
- normalised viability (MDA-MB-231; 10 nM): 29.5%
- normalised viability (MDA-MB-231; 100 nM): 16.1%
- normalised viability (MDA-MB-468 [3]; 10 nM): 50.6%
- normalised viability (MDA-MB-468 [3]; 100 nM): 32.1%
- normalised viability (HCC1937; 10 nM): 33.6%
- normalised viability (HCC1937; 100 nM): 17.8%
- normalised viability (SK-BR-3; 10 nM): 15.6%
- normalised viability (SK-BR-3; 100 nM): 15.8%
- normalised viability (DU-4475 [4]; 1 nM): 102%
- normalised viability (DU-4475 [4]; 10 nM): 78.8%
- normalised viability (MFM-223; 10 nM): 59.8%
- normalised viability (MFM-223; 100 nM): 39.5%
- normalised viability (BT-549; 10 nM): 29.3%
- normalised viability (BT-549; 100 nM): 25.2%
- normalised viability (MDA-MB-436; 10 nM): 52.4%
- normalised viability (MDA-MB-436; 100 nM): 44.9%
- normalised viability (CAL-148 [5]; 1 nM): 91.3%
- normalised viability (CAL-148 [5]; 10 nM): 90.2%
- normalised viability (Hs578T; 10 nM): 16.6%
- normalised viability (Hs578T; 100 nM): 19.3%
- normalised viability (MDA-MB-453 [6]; 1 nM): 103%
- normalised viability (MDA-MB-453 [6]; 10 nM): 31.6%
- normalised viability (HCC1143; 10 nM): 34.2%
- normalised viability (HCC1143; 100 nM): 40.4%
- normalised viability (HCC1599 [7]; 10 nM): 93.5%
- normalised viability (HCC1599 [7]; 100 nM): 51.1%
- normalised viability (CAL-85-1 [8]; 1 nM): 96.5%
- normalised viability (CAL-85-1 [8]; 10 nM): 61.1%
- normalised viability (CAL-51 [9]; 1 nM): 108%
- normalised viability (CAL-51 [9]; 10 nM): 87.8%
- normalised viability (CAL-120; 10 nM): 22.9%
- normalised viability (CAL-120; 100 nM): 20%
- normalised viability (HDQ-P1 [10]; 100 nM): 36.1%
- normalised viability (HDQ-P1 [10]; 1000 nM): 43.1%
- normalised viability (DU-4475 [11]; 100 nM): 34.1%
- normalised viability (DU-4475 [11]; 1000 nM): 8.18%
- normalised viability (CAL-148 [12]; 100 nM): 16%
- normalised viability (CAL-148 [12]; 1000 nM): 26%
- normalised viability (MDA-MB-453 [13]; 100 nM): 34.3%
- normalised viability (MDA-MB-453 [13]; 1000 nM): 36.4%
- normalised viability (CAL-85-1 [14]; 100 nM): 43.9%
- normalised viability (CAL-85-1 [14]; 1000 nM): 34.7%
- normalised viability (CAL-51 [15]; 100 nM): 27%
- normalised viability (CAL-51 [15]; 1000 nM): 10.3%
- drug sensitivity score (MDA-MB-468 [16]): 22.1
- drug sensitivity score (CAL-85-1 [17]): 14.4

Compound: C[C@]12CC[C@H](O)CC1=CC[C@@H]1[C@@H]2CC[C@]2(C)C(c3cccnc3)=CC[C@@H]12 [Abiraterone]
- drug sensitivity score (HCC1599 [1]): 0
- normalised viability (BT-474; 50 nM): 112%
- normalised viability (HDQ-P1 [2]; 5 nM): 109%
- normalised viability (MDA-MB-231; 50 nM): 95.6%
- normalised viability (MDA-MB-468 [3]; 50 nM): 107%
- normalised viability (HCC1937; 50 nM): 98.9%
- normalised viability (SK-BR-3; 50 nM): 73.4%
- normalised viability (DU-4475 [4]; 5 nM): 94%
- normalised viability (MFM-223; 50 nM): 98%
- normalised viability (BT-549; 50 nM): 108%
- normalised viability (MDA-MB-436; 50 nM): 126%
- normalised viability (CAL-148 [5]; 5 nM): 86.7%
- normalised viability (Hs578T; 50 nM): 91.7%
- normalised viability (MDA-MB-453 [6]; 5 nM): 91.6%
- normalised viability (HCC1143; 50 nM): 75.2%
- normalised viability (HCC1599 [7]; 50 nM): 102%
- normalised viability (CAL-85-1 [8]; 5 nM): 91.1%
- normalised viability (CAL-51 [9]; 5 nM): 106%
- normalised viability (CAL-120; 50 nM): 87.6%
- normalised viability (HDQ-P1 [10]; 500 nM): 112%
- normalised viability (DU-4475 [11]; 500 nM): 94.2%
- normalised viability (CAL-148 [12]; 500 nM): 94.7%
- normalised viability (MDA-MB-453 [13]; 500 nM): 92.3%
- normalised viability (CAL-85-1 [14]; 500 nM): 77.2%
- normalised viability (CAL-51 [15]; 500 nM): 103%
- drug sensitivity score (MDA-MB-468 [16]): 0
- drug sensitivity score (CAL-85-1 [17]): 0
